system: HEK293 cell lysates after 5 minutes serum stimulation; assay: Tagged substrates array: in vitro protein kinase reaction of the tagged peptide mix with cell lysate, sorted on tag array, anti-pTyr immunostaining; assay type: biochemical; conditions: Hundred micrograms of total cell lysate, 30 minutes at 37 degree Celsius; anti-pTyr monoclonal antibody mix, Cy5 secondary, GenePix scanner
Description: EDC/NHS combined cross-linking was performed to tag the peptide or substrate which needs to be sorted. Coupling buffer contains no Tris and no phosphate. Peptides and oligonucleotides in equimolar ratios [50 μg/ml in 10 mM sodium acetate buffer (pH 5.0)] were reacted with a 1:1 mixture of N-hydroxysuccinimide NHS and 1 -ethyl-3 -(3 -dimethylaminopropyl) carbodiimide EDC for 2 hours. The excess active groups were then blocked with 1 M ethanolamine (pH 8.5).
Peptides. Phosphotyrosine-containing and non-phosphorylated peptides were synthesized, HPLC purified and checked by mass spectroscopy. Peptides were stored under nitrogen at -80 degree. Celsius. The synthesized peptides were as following, phosphotyrosine, AEPDpYGALYE PLCgamma, SAAPpYLKTK Stat3-705, DDPSpYVNVQ SHC-317, PDHQpYYNDF SHC-239, TDDGpYMPMS IRS 1-608, GNGDpYMPMS IRS 1-628, SPGEpYVNIE IRS 1-895, KSLNpYIDLD IRS 1-1172, DLSTpYASIN IRS1-1222; non-phosphorylated, AEPDYGALYE, SAAPYLKTK, DDPSYVNVQ and PDHQYYNDF SHC, KDGATMKTF Akt, RGRSRSAPPN BAD, GEGTYGVVYK p34cdc2, GAGTPAATDEK, DGFVLTRLLE beta spectrin, NSIMKCDIDI Gamma actin, PGIADRMQKE beta actin.
Amino modified oligonucleotides used as tags. The amino modifications can be used either for slides coupling or for peptide coupling, or for coupling to any reactive substrates which needs to be sorted onto the array. Oligonucleotides are chosen with similar Tm and hybridization properties. Oligonucleotides can be substituted by any pair of complementary nucleic acids or PNAs without affecting the sensitivity or completeness of the assay. The length and sequence of the nucleic acids or PNAs is also not important as long as strands complementarity results in hibridization specificity. Here it is described a test experiment with 18 pairs of oligonucleotides. […]
Slide Overlay. […] After triple washing in TBST, and then TBS, fluorescent complexes are detected by using a GenePix microarrays scanner. […]

| Sequence | phosphorylation of sorted tagged substrate (FIG. 10) |
| --- | --- |
| PDHQYYNDF [Substrate S4] | strongly phosphorylated |
| SAAPYLKTK [Substrate S2] | moderately well phosphorylated |
| AEPDYGALYE [Substrate S1] | moderately well phosphorylated |
